Assays:
[1] = target: T1, human CB2 receptor (hCB2R) (Homo sapiens, UniProt P34972); experiment: TR-FRET hCB2R binding assay; details: TR-FRET, membranes of SNAP-tagged human CB2R HEK293-TR cells, 100 μM GppNHp, nonspecific binding with SR144528; read-out: Kd hCB2R
T1 construct: expressed in transfected cells; membranes

[2] = target: hCB1R (Homo sapiens, UniProt P21554); experiment: hCB1R binding (Kd hCB1R, Table 1)
[3] = target: T2, CB2 receptor (hCB2R), CHO cell line stably overexpressing CB2 receptor (Homo sapiens, UniProt P34972); experiment: cAMP hCB2R functional assay (HTRF); type: cell-based; details: CHO cells overexpressing CB2 receptor, forskolin; for Functionality: normalized to Emax of CP55940 (100%); for EC50: means ± SEM of 2-3 independent experiments
T2 construct: expressed in transfected cells; host or cells: CHO cell line stably overexpressing CB2 receptor (G418 selection)
Procedure: cAMP hCB2R Functional Assay
The Homogeneous Time Resolved Fluorescence (HTRF) Assays
The homogeneous time-resolved fluorescence (HTRF) cAMP assay was conducted according to the manufacturer's protocol for the cAMP-Gs Dynamic kit (Cisbio). Briefly, the CHO cell line stably overexpressing CB2 receptor were maintained in Ham's F12 supplemented with 10% FBS, 100 U/ml penicillin and 100 μg/ml streptomycin (Gibco-ThermoFisher) and 400 μg/ml G418 (ThermoFisher). For CB2 compounds test, harvest the cells with Cell Dissociation Buffer and re-suspend the cells in F-12 K at 0.4*10^6 cells/mL, and dispense cells into 384-well low volume plates at 2000 cells/5 μL per well. The cells were stimulated with compounds diluted in Stimulation Buffer (2.5 μL/well) for 15 min at room temperature. And then followed by the addition of 2.5 μL 25 μM forsklin. After 15 mins incubation, reactions were stopped by 5 μL/well cAMP-d2 conjugate working solution followed by 5 μL/well of anti-cAMP cryptate working solution. After incubation for 1 h at room temperature, the plates were read in a PerkinElmer Envision reader for time-resolved fluorescence resonance energy transfer detection at 620 nm and 665 nm.
Quantification and Statistical Analysis
All HTRF ratio data sets of test compounds were normalized to the Emax of CP55940 (100%) and obtained the means±standard error of the mean (SEM) of 2-3 independent experiments performed in technical replicates.

hCB1R, sequence (P21554 whole entry): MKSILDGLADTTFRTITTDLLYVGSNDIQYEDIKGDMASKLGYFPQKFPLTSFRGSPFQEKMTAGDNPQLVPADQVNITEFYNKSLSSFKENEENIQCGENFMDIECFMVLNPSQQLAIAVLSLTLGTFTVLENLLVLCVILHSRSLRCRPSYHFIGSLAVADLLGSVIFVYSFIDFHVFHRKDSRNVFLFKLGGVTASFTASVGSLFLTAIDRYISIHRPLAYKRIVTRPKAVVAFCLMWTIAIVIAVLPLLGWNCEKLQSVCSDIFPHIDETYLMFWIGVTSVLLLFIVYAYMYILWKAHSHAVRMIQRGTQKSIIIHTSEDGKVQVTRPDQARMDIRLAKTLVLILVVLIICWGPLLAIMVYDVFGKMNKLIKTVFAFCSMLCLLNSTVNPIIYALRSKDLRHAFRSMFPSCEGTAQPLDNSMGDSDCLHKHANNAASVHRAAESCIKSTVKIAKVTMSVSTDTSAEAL
T2 sequence (P34972 whole entry): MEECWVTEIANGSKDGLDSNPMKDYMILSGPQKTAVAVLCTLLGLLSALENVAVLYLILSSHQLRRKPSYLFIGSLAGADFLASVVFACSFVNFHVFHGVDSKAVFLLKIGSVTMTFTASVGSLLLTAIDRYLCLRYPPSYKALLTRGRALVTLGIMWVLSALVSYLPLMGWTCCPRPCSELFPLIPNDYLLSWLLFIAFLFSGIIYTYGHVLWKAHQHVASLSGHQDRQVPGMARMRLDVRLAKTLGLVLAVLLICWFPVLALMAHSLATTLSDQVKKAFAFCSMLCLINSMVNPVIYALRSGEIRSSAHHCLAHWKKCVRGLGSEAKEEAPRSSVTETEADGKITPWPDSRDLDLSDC
T1 sequence (P34972 whole entry): as above

CCCCC[C@@H](CC)C(C)(C)c1cc(OC)c([C@H]2C=C(CO)[C@H]3C[C@@H]2C3(C)C)c(OC)c1 (single isomer, unassigned) [Example 4]
Kd [1]: 0.97 nM | Kd [2]: 2190 nM | Functionality [3]: antagonist

CCCCC[C@@H](C(F)(F)F)C(C)(C)c1cc(OC)c([C@H]2C=C(CO)[C@H]3C[C@@H]2C3(C)C)c(OC)c1 [Example 1, ((1S,4S,5S)-4-(2,6-dimethoxy-4-((R)-2-methyl-3-(trifluoromethyl)octan-2-yl)phenyl)-6,6-dimethylbicyclo[3.1.1]hept-2-en-2-yl)methanol]
Kd [1]: 606 nM | Kd [2]: 11800 nM | Functionality [3]: antagonist

CCCCC[C@H](C(F)(F)F)C(C)(C)c1cc(OC)c([C@H]2C=C(CO)[C@H]3C[C@@H]2C3(C)C)c(OC)c1 [Example 2, ((1S,4S,5S)-4-(2,6-dimethoxy-4-((S)-2-methyl-3-(trifluoromethyl)octan-2-yl)phenyl)-6,6-dimethylbicyclo[3.1.1]hept-2-en-2-yl)methanol]
Kd [1]: 9.9 nM | Kd [2]: 6530 nM | EC50 [3]: 11.7 nM | Functionality [3]: agonist

CCCCCC(CC)C(C)(C)c1cc(OC)c([C@H]2C=C(CO)[C@H]3C[C@@H]2C3(C)C)c(OC)c1 (stereo partly drawn) [Example 3, ((1S,4S,5S)-4-(4-(3-ethyl-2-methyloctan-2-yl)-2,6-dimethoxyphenyl)-6,6-dimethylbicyclo[3.1.1]hept-2-en-2-yl)methanol]
Kd [1]: 0.56 nM | Kd [2]: 13000 nM | EC50 [3]: 100 nM | Functionality [3]: partial agonist

CCCCCC(CCC)C(C)(C)c1cc(OC)c([C@H]2C=C(CO)[C@H]3C[C@@H]2C3(C)C)c(OC)c1 (stereo partly drawn) [Example 5, ((1S,4S,5S)-4-(2,6-dimethoxy-4-(2-methyl-3-propyloctan-2-yl)phenyl)-6,6-dimethylbicyclo[3.1.1]hept-2-en-2-yl)methanol]
Kd [1]: 74 nM | Kd [2]: 6740 nM | EC50 [3]: 112 nM | Functionality [3]: inverse agonist

CCCCCC(C(C)C)C(C)(C)c1cc(OC)c([C@H]2C=C(CO)[C@H]3C[C@@H]2C3(C)C)c(OC)c1 (stereo partly drawn) [Example 6, ((1S,4S,5S)-4-(4-(3-isopropyl-2-methyloctan-2-yl)-2,6-dimethoxyphenyl)-6,6-dimethylbicyclo[3.1.1]hept-2-en-2-yl)methanol]
Kd [1]: 6.1 nM | Kd [2]: 7040 nM | Functionality [3]: antagonist

CCCCC[C@H](c1ccccc1)C(C)(C)c1cc(OC)c([C@H]2C=C(CO)[C@H]3C[C@@H]2C3(C)C)c(OC)c1 [Example 7, ((1S,4S,5S)-4-(2,6-dimethoxy-4-((R)-2-methyl-3-phenyloctan-2-yl)phenyl)-6,6-dimethylbicyclo[3.1.1]hept-2-en-2-yl)methanol]
Kd [1]: 197 nM | Kd [2]: 1040 nM | EC50 [3]: 417 nM | Functionality [3]: inverse agonist

CCCCC[C@@H](c1ccccc1)C(C)(C)c1cc(OC)c([C@H]2C=C(CO)[C@H]3C[C@@H]2C3(C)C)c(OC)c1 [Example 8, ((1S,4S,5S)-4-(2,6-dimethoxy-4-((S)-2-methyl-3-phenyloctan-2-yl)phenyl)-6,6-dimethylbicyclo[3.1.1]hept-2-en-2-yl)methanol]
Kd [1]: 4.5 nM | Kd [2]: 716 nM | EC50 [3]: 302 nM | Functionality [3]: inverse agonist

CCCCC[C@H](c1ccc(F)cc1)C(C)(C)c1cc(OC)c([C@H]2C=C(CO)[C@H]3C[C@@H]2C3(C)C)c(OC)c1 [Example 9, ((1S,4S,5S)-4-(4-((R)-3-(4-fluorophenyl)-2-methyloctan-2-yl)-2,6-dimethoxyphenyl)-6,6-dimethylbicyclo[3.1.1]hept-2-en-2-yl)methanol]
Kd [1]: 1150 nM | Kd [2]: 1480 nM | Functionality [3]: antagonist

CCCCC[C@@H](c1ccc(F)cc1)C(C)(C)c1cc(OC)c([C@H]2C=C(CO)[C@H]3C[C@@H]2C3(C)C)c(OC)c1 [Example 10, ((1S,4S,5S)-4-(4-((S)-3-(4-fluorophenyl)-2-methyloctan-2-yl)-2,6-dimethoxyphenyl)-6,6-dimethylbicyclo[3.1.1]hept-2-en-2-yl)methanol]
Kd [1]: 301 nM | Kd [2]: 1790 nM | Functionality [3]: antagonist

CCCCC[C@H](c1cccc(F)c1)C(C)(C)c1cc(OC)c([C@H]2C=C(CO)[C@H]3C[C@@H]2C3(C)C)c(OC)c1 [Example 11, ((1S,4S,5S)-4-(4-((R)-3-(3-fluorophenyl)-2-methyloctan-2-yl)-2,6-dimethoxyphenyl)-6,6-dimethylbicyclo[3.1.1]hept-2-en-2-yl)methanol]
Kd [1]: 355 nM | Kd [2]: 2690 nM | EC50 [3]: 2340 nM | Functionality [3]: inverse agonist

CCCCC[C@@H](c1cccc(F)c1)C(C)(C)c1cc(OC)c([C@H]2C=C(CO)[C@H]3C[C@@H]2C3(C)C)c(OC)c1 [Example 12, ((1S,4S,5S)-4-(4-((S)-3-(3-fluorophenyl)-2-methyloctan-2-yl)-2,6-dimethoxyphenyl)-6,6-dimethylbicyclo[3.1.1]hept-2-en-2-yl)methanol]
Kd [1]: 30 nM | Kd [2]: 1950 nM | EC50 [3]: 209 nM | Functionality [3]: inverse agonist

CCN(CC)c1ccc2cc(/C=C/c3ccc(S(=O)(=O)[O-])c[n+]3CCCCCC(=O)NCC3=C[C@H](c4c(OC)cc(C(C)(C)[C@H](CCCCCN=[N+]=[N-])c5ccccc5)cc4OC)[C@@H]4C[C@H]3C4(C)C)c(=O)oc2c1 [Example 22, 1-(6-((((1S,4S,5S)-4-(4-((R)-8-azido-2-methyl-3-phenyloctan-2-yl)-2,6-dimethoxyphenyl)-6,6-dimethylbicyclo[3.1.1]hept-2-en-2-yl)methyl)amino)-6-oxohexyl)-6-((E)-2-(7-(diethylamino)-2-oxo-2H-chromen-3-yl)vinyl)pyridin-1-ium-3-sulfonate]
Kd [1]: 10.2 nM | Kd [2]: 1740 nM | EC50 [3]: 70.8 nM | Functionality [3]: inverse agonist

COc1cc(C(C)(C)[C@H](CCCCCN=[N+]=[N-])c2ccccc2)cc(OC)c1[C@H]1C=C(CNC(=O)CCCCCCNc2ccc([N+](=O)[O-])c3nonc23)[C@H]2C[C@@H]1C2(C)C [Example 24, N-(((1S,4S,5S)-4-(4-((R)-8-azido-2-methyl-3-phenyloctan-2-yl)-2,6-dimethoxyphenyl)-6,6-dimethylbicyclo[3.1.1]hept-2-en-2-yl)methyl)-7-((7-nitrobenzo [c][1,2,5]oxadiazol-4-yl)amino)heptanamide]
Kd [1]: 12.3 nM | Kd [2]: 840 nM | EC50 [3]: 1230 nM | Functionality [3]: inverse agonist

COc1cc(C(C)(C)[C@H](CCCCCN=[N+]=[N-])c2ccccc2)cc(OC)c1[C@H]1C=C(CNC(=O)CCCCCNC(=O)c2ccc3c(c2)C(=O)OC32c3ccc(N)c(S(=O)(=O)O)c3Oc3c2ccc(N)c3S(=O)(=O)O)[C@H]2C[C@@H]1C2(C)C [Example 29, 3′,6′-diamino-5-((6-((((1S,4S,5S)-4-(4-((R)-8-azido-2-methyl-3-phenyloctan-2-yl)-2,6-dimethoxyphenyl)-6,6-dimethylbicyclo[3.1.1]hept-2-en-2-yl)methyl)amino)-6-oxohexyl)carbamoyl)-3-oxo-3H-spiro[isobenzofuran-1,9′-xanthene]-4′,5′-disulfonic acid]
Kd [1]: 24.9 nM | Kd [2]: 3300 nM

— patent publication US20260200892A1, “CANNABINOID RECEPTOR 2 MODULATORS” (Hoffmann-La Roche Inc., priority 2023, published 2026)
